According to US5679521A, “Steroid 5A-reductases” (priority 1995, dated 1997):
Where “and” joins values, the source holds several entries; their conditions need not be identical. Identical values can stand only once.

Columns and labels:
[1] = target: T1, human steroid 5α-reductase 1 (Homo sapiens, UniProt P18405); test: steroid 5α-reductase activity/inhibition in vitro, homogenates of COS cells expressing human steroid 5α-reductase 1 cDNA (Table III); conditions: human enzyme
T1 sequence (P18405 1-259): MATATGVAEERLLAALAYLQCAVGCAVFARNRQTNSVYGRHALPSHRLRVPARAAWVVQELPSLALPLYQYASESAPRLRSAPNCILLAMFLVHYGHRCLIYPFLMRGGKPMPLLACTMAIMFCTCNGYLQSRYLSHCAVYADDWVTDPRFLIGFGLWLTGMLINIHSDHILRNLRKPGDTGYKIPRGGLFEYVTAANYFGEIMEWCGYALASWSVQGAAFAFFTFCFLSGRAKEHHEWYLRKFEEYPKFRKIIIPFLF
From the text: (§1) Expression Vector Construction. A rat steroid 5α-reductase cDNA corresponding to nucleotides 1-1962 (see Example 1) was ligated into the pCMV4 expression vector (Andersson et al., 1989b). A human cDNA corresponding to nucleotides 1 to 842 of FIG. 7 was initially ligated into pCMV4. […] After amplification, the product was ligated into pCMV4.
(§2) Expression of Steroid 5α-Reductase 1 cDNAs in COS Cells. Simian COS-M6 cells were transfected as described by Andersson et al. (1989b). The assay of steroid 5α-reductase activity in intact cells was carried out as described in Example 1 except that [^14 C]-labeled steroid dissolved in ethanol were added to the transfected cell medium and subsequent organic extractions were carried out with dichloromethane. TLC and liquid scintillation counting were performed as described in Example 1.
(§3) To assay steroid 5α-reductase activity in vitro, cells were harvested 48 hours after transfection, washed once with phosphate buffered saline and either frozen in liquid N2 or homogenized directly with a Polytron in 10 mM potassium phosphate (pH 7.4), 150 mM KCl and 1 mM EDTA, at a protein concentration of 2 mg/ml. A typical assay contained 10 to 50 μg of cell homogenate protein in 0.5 ml of 0.1M potassium phosphate buffer (pH 6.6, rat enzyme; pH 7.0, human enzyme). Steroids were added in 5 μl ethanol, and the reaction was initiated by the addition of NADPH to a final concentration of 2-5 mM. Incubations were carried out for 10 min at 37° C. and terminated by the addition of 5 ml dichloromethane. Organic execrations and thin-layer chromatography analysis were as described above.
(§4) The apparent Km and Vmax values in this system were determined in vitro with five different steroid substrates (Table III).
(§5) The apparent Ki values were then determined for 4-aza-steroid (4-MA and MK-906) inhibition of 5α-reductases expressed in COS cells. […] The data obtained were analyzed using Dixon plots to determine the type of inhibition and the apparent Ki value (Dixon et al., 1979).
(§6) COS call transfaction, cell homogonate preparation, and enzyme assay were
(§7) carried out as described in Materials and Methods. Each Km value
(§8) represents the average of at least two experiments carried out on
(§9) different days using cell lysates prepared from different transfections.

rat steroid 5α-reductase [2] = target: T2, rat steroid 5α-reductase (Rattus norvegicus, UniProt P24008); test: steroid 5α-reductase activity/inhibition in vitro, homogenates of COS cells expressing rat cDNA (Table III); conditions: rat enzyme
T2 sequence (P24008 5-259): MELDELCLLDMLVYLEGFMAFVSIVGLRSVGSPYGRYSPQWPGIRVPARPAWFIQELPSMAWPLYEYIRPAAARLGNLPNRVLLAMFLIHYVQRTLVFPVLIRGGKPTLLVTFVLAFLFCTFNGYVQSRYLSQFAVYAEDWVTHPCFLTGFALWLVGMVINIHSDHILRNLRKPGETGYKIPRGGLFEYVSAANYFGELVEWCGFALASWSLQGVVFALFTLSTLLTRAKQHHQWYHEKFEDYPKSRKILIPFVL
From the text: as §1, §2, §3, §4, §5, §6, §7, §8, §9

[3] = target: T3, cloned rat steroid 5α-reductase (Rattus norvegicus, UniProt P24008); test: substrate specificity / inhibition of cloned rat liver steroid 5α-reductase expressed in Xenopus oocytes; conditions: for substrate for the cloned enzyme: 5 μM 14C-labeled steroid
T3 sequence (P24008 5-259): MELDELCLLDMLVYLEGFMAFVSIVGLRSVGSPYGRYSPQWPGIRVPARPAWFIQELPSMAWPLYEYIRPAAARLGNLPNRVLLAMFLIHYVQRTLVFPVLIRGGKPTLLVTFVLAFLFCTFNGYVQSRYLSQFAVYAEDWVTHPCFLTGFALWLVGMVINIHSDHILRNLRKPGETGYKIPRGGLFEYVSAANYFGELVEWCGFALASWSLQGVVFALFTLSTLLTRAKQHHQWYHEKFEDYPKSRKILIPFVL
Description: The various steroids and metabolites are identified on the left and right of the autoradiograms: P, progesterone ; 5αP, 5α-dihydroprogesterone; others are as indicated in the legend to FIG. 2. The amount of 5α-reduced metabolites for each substrate is indicated at the bottom of the figure and was determined by liquid scintillation counting after cutting out appropriate zones from the chromatograms.
Steroid 5α-Reductase Enzyme Assay. Stage 5 and 6 oocytes were surgically removed from female Xenopus laevis (NASCO, Fort Atkinson , Wis.) and collagenase-treated as described by Julius et al., (1988). Oocytes were injected with 50-100 nl of RNA (1 μg/μl) as described by Peacock et al. (Peacock et al., 1988). After injection the oocytes were incubated at 19° C. for 24 hours in modified Barth's saline solution (Peacock et al., 1988) containing 1 mg/ml bovine serum albumin (BSA) to allow expression of the injected RNA. Five to ten viable oocytes were then transferred to 1 ml of modified Barth's saline solution containing 5 μM ^14 C-labeled steroid (50 mCi/mmol, Du Pont-New England Nuclear), and incubated at 37° C. for 2-24 h. This temperature-jump protocol is based on the observation that expression of mRNA in Xenopus is maximal a 19° C., whereas rat steroid 5α-reductase expressed in Xenopus has a temperature optima of 37° C. After the 37° C. incubation, the oocytes were homogenized in the incubation medium and steroid was extracted with 10 ml of dichloromethane. The solvent was evaporated under air and the residue was dissolved in 0.1 ml of chloroform/methanol (2:1, v/v) and subjected to thin-layer chromatography using Siica Gel 60 thin-layer chromatography plates (E. merck, 5748-7, Darmstadt, West Germany). The chromatoplates were autoradiographed for 18 hours at -70° C. and the radioactive zones were cut out and subjected to liquid scintillation counting in Complete Counting Cocktail (Research Products International). The identities of the products were determined by comparison to the Rf values of known standards.
(§12) The oocytes were then incubated with different radiolabeled steroids for an additional 24 hours and the products formed were analyzed by thin-layer chromatography (TLC).

rat steroid 5α-reductase [4] = target: T2, rat steroid 5α-reductase; test: steroid 5α-reductase assay in intact transfected COS cells, rat cDNA; assay type: cell-based; set-up: the open reading frame would encode a hydrophobic protein of 255 amino acids; expressed in transfected cells; host or cells: simian COS-M6 cells, pCMV4 vector; conditions: rat enzyme expressed in COS cells; 37° C., 2 hr
From the text: as §1, §2
(§10) COS cells were transiently transfected with expression vectors harboring the rat or human steroid 5α-reductase 1 cDNAs, or with the pCMV4 vector alone.
(§11) IC50 values for MK-906 and 4-MA inhibition of 5α-reductases expressed in COS cells were also determined. […] See Example 6 and FIG. 15, for further analysis of 4-aza-steroid inhibition.

steroid 5α-reductase = conditions: Liang et al., 1985; cited from earlier work
[5] = target: T1, human steroid 5α-reductase 1; test: steroid 5α-reductase assay in intact transfected COS cells, human type 1 cDNA; assay type: cell-based; set-up: Human 5α-reductase 1 is 259 residues long; expressed in transfected cells; host or cells: simian COS-M6 cells, pCMV4 vector; conditions: human steroid 5α-reductase 1 expressed in COS cells; 37° C., 2 hr
From the text: as §1, §2, §10, §11

[6] = system: endogenous Xenopus enzyme (presumably a 17β-hydroxysteroid dehydrogenase); test: conversion of steroids by endogenous Xenopus oocyte enzymes (control for nonspecific inhibition); assay type: cell-based, Xenopus laevis; conditions: 5 μM substrate, 5 μM inhibitor
Description: Steroid 5α-Reductase Enzyme Assay. Stage 5 and 6 oocytes were surgically removed from female Xenopus laevis (NASCO, Fort Atkinson , Wis.) and collagenase-treated as described by Julius et al., (1988). Oocytes were injected with 50-100 nl of RNA (1 μg/μl) as described by Peacock et al. (Peacock et al., 1988). After injection the oocytes were incubated at 19° C. for 24 hours in modified Barth's saline solution (Peacock et al., 1988) containing 1 mg/ml bovine serum albumin (BSA) to allow expression of the injected RNA. Five to ten viable oocytes were then transferred to 1 ml of modified Barth's saline solution containing 5 μM ^14 C-labeled steroid (50 mCi/mmol, Du Pont-New England Nuclear), and incubated at 37° C. for 2-24 h. […] After the 37° C. incubation, the oocytes were homogenized in the incubation medium and steroid was extracted with 10 ml of dichloromethane. The solvent was evaporated under air and the residue was dissolved in 0.1 ml of chloroform/methanol (2:1, v/v) and subjected to thin-layer chromatography using Siica Gel 60 thin-layer chromatography plates (E. merck, 5748-7, Darmstadt, West Germany). […] The identities of the products were determined by comparison to the Rf values of known standards.
as §12

[7] = substrate: C[C@]12CCC(=O)C=C1CC[C@@H]1[C@@H]2CC[C@]2(C)C(=O)CC[C@@H]12; test: cells, lysate or membranes named; conditions: 0.6 to 20 μM substrate, Lineweaver-Burk, 37.0 °C
Description: (§13) To assay steroid 5α-reductase activity in vitro, cells were harvested 48 hours after transfection, washed once with phosphate buffered saline and either frozen in liquid N2 or homogenized directly with a Polytron in 10 mM potassium phosphate (pH 7.4), 150 mM KCl and 1 mM EDTA, at a protein concentration of 2 mg/ml. A typical assay contained 10 to 50 μg of cell homogenate protein in 0.5 ml of 0.1M potassium phosphate buffer (pH 6.6, rat enzyme; pH 7.0, human enzyme). Steroids were added in 5 μl ethanol, and the reaction was initiated by the addition of NADPH to a final concentration of 2-5 mM. Incubations were carried out for 10 min at 37° C. and terminated by the addition of 5 ml dichloromethane. Organic execrations and thin-layer chromatography analysis were as described above. The formation of 5α-reduced steroid products was linear with respect to protein over a 10 to 50 μg range and with respect to incubation time over a 1 to 30 minute period.

[8] = substrate: C[C@]12CC[C@H]3[C@@H](CCC4=CC(=O)CC[C@@]43C)[C@@H]1CC[C@@H]2O; test: cells, lysate or membranes named; conditions: 0.6 to 20 μM substrate, Lineweaver-Burk, 37.0 °C
[9] = substrate: CC(=O)[C@H]1CC[C@H]2[C@@H]3CCC4=CC(=O)CC[C@]4(C)[C@H]3CC[C@]12C; test: cells, lysate or membranes named; conditions: 0.6 to 20 μM substrate, Lineweaver-Burk, 37.0 °C
Description: as §13

[10] = read-out: apparent Ki, two [14C]testosterone concentrations, Dixon plots
[11] = other: rat enzyme in COS cell homogenate
[12] = other: human enzyme in COS cell homogenate

For `C[C@]12CCC(=O)C=C1CC[C@@H]1[C@@H]2[C@@H](O)C[C@@]2(C)[C@H]1CC[C@]2(O)C(=O)CO` [Cortisol, cortisol], the “activity towards 11β-substituted steroids” value [1] was “very low activities” and the “activity towards 11β-substituted steroids” value (rat steroid 5α-reductase [2]) was “very low activities”.

In the case of `C[C@]12CCC(=O)C=C1CC[C@@H]1[C@@H]2CC[C@]2(C)C(=O)CC[C@@H]12` [Androstenedione, androstenedione], the “substrate for the cloned enzyme” value [3] is reported as “substrates for the cloned enzyme”.

For `CCN(CC)C(=O)[C@H]1CC[C@H]2[C@@H]3CC[C@H]4N(C)C(=O)CC[C@]4(C)[C@H]3CC[C@]12C` [4-MA, 17α-N,N-diethylcarbamoyl-4-methyl-4-aza-5α-androtane-3-one], the “apparent Ki (in words)” value [1] was “low nanomolar range”, the type of inhibition ([1]; Dixon plots) was “competitive” and the Ki [1, 10] was 7 nM and 8 nM. For the same molecule, the “IC50 inhibition, relative potency of MK-906 and 4-MA” value (rat steroid 5α-reductase [4]) was “equipotent”, the type of inhibition (steroid 5α-reductase) was “competitive inhibitors” and the “IC50 inhibition, relative potency of 4-MA versus MK-906” value [5] was “approximately ten-fold more potent than MK-906”. The “effect on reduction of androstenedione” value ([3]; 5 μM substrate, 5 μM inhibitor) was “efficiently blocked”, the “effect on reduction of progesterone” value ([3]; 5 μM substrate, 5 μM inhibitor) was “efficiently blocked” and the “effect on formation of 5α-reduced products from testosterone” value ([3]; equimolar testosterone and inhibitor (5 μM each)) was “substantial decrease”. For the same molecule, the “apparent Ki (in words)” value (rat steroid 5α-reductase [2]) was “low nanomolar range”, the type of inhibition (rat steroid 5α-reductase [2]; Dixon plots) was “competitive” and the Ki (rat steroid 5α-reductase [2]; [10]) was 5 nM and 7 nM. The “effect on conversion of dihydrotestosterone into other 5α-reduced metabolites by endogenous Xenopus enzymes” value [6] was “no effect” and the “effect on conversion of testosterone into androstenedione by endogenous Xenopus enzyme” value [6] was “not inhibited”.

For `C[C@]12CC[C@H]3[C@@H](CCC4=CC(=O)CC[C@@]43C)[C@@H]1CC[C@@H]2O` [Testosterone, testosterone], the “reduction of the testosterone substrate” value ([3]; intact rat steroid 5α-reductase RNA in oocytes (FIG. 6A)) was 67%.

For `C[C@]12C[C@H](O)[C@H]3[C@@H](CCC4=CC(=O)CC[C@@]43C)[C@@H]1CC[C@@H]2C(=O)CO` [Corticosterone, corticosterone], the “activity towards 11β-substituted steroids” value [1] was “very low activities” and the “activity towards 11β-substituted steroids” value (rat steroid 5α-reductase [2]) was “very low activities”.

For `CC(=O)[C@H]1CC[C@H]2[C@@H]3CCC4=CC(=O)CC[C@]4(C)[C@H]3CC[C@]12C` [Progesterone, progesterone], the “substrate for the cloned enzyme” value [3] was “substrates for the cloned enzyme”.

B1: rat steroid 5α-reductase (Rattus norvegicus) (protein)
chain: MELDELCLLDMLVYLEGFMAFVSIVGLRSVGSPYGRYSPQWPGIRVPARPAWFIQELPSMAWPLYEYIRPAAARLGNLPNRVLLAMFLIHYVQRTLVFPVLIRGGKPTLLVTFVLAFLFCTFNGYVQSRYLSQFAVYAEDWVTHPCFLTGFALWLVGMVINIHSDHILRNLRKPGETGYKIPRGGLFEYVSAANYFGELVEWCGFALASWSLQGVVFALFTLSTLLTRAKQHHQWYHEKFEDYPKSRKILIPFVL
For B1, the Km [7, 11] was 2.8 µM, the Km [8, 11] was 2.5 µM and the Km [9, 11] was 0.5 µM.

B2: human steroid 5α-reductase 1 (Homo sapiens) (protein)
chain: MATATGVAEERLLAALAYLQCAVGCAVFARNRQTNSVYGRHALPSHRLRVPARAAWVVQELPSLALPLYQYASESAPRLRSAPNCILLAMFLVHYGHRCLIYPFLMRGGKPMPLLACTMAIMFCTCNGYLQSRYLSHCAVYADDWVTDPRFLIGFGLWLTGMLINIHSDHILRNLRKPGDTGYKIPRGGLFEYVTAANYFGEIMEWCGYALASWSVQGAAFAFFTFCFLSGRAKEHHEWYLRKFEEYPKFRKIIIPFLF
Work on B2 yielded a Km [7, 12] of 1.7 µM, a Km [8, 12] of 3.6 µM and a Km [9, 12] of 0.8 µM.
